Each structure is given as a SMILES string.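 Assay format: 96-well plates, 48-hour exposure. GI50 marks 50% less growth.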 Activity calls are given as the source filed them. Rule as the data show it: active = GI50 up to about 1.1 µM and inactive = higher.

Some test systems named below: 786-0; CCRF-CEM; EKVX; HCC 2998; HCT-116; HCT-15; HT-29; IGROV-1; MDA-N; Malme-3M; NCI-H460; OVCAR-3; OVCAR-5; RXF 393; SF-295; SN12C; SNB-19; SR; TK-10; UO-31.
Holding throughout (experiment): NCI tumour cell line growth inhibition, 48 h

Regarding `O=C(N[C@H](CO)[C@H](O)c1ccc([N+](=O)[O-])cc1)C(Cl)Cl` [CHLORAMPHENICOL], the GI50 was > 100 µM (inactive) in the test on 786-0; > 100 µM (inactive) in the test with CCRF-CEM; > 100 µM (inactive) with EKVX; > 100 µM (inactive) in the test on HCC 2998; > 100 µM (inactive) with HCT-116; above 100 µM in the test with HCT-15. Besides, the GI50 in the test with HT-29, with IGROV-1, with MDA-N, in the test with Malme-3M, with NCI-H460 and in the test on OVCAR-3 was > 100 µM (inactive) throughout. The GI50 with OVCAR-5, with RXF 393, with SF-295, in the test with SN12C, with SNB-19 and in the test with SR was > 100 µM (inactive) throughout. Further, the GI50 with TK-10 and in the test on UO-31 was > 100 µM (inactive) throughout.
On to `CN(C)CCC(=O)N1C/C(=C\c2ccc(Cl)c(Cl)c2)C(=O)/C(=C/c2ccc(Cl)c(Cl)c2)C1`, for which the GI50 is 0.125 µM (active) in the test on 786-0; 0.0269 µM (active) in the test with CCRF-CEM; 0.565 µM (active) with EKVX; 0.321 µM (active) in the test with HCC 2998; 0.119 µM (active) with HCT-116; 0.184 µM in the test on HCT-15. Also, the GI50 is 0.188 µM (active) in the test on HT-29; 0.434 µM (active) with IGROV-1; 0.213 µM (active) in the test with MDA-N; 0.64 µM (active) with Malme-3M; 0.479 µM (active) with NCI-H460; 0.448 µM (active) in the test on OVCAR-3. The GI50 is 0.731 µM (active) with OVCAR-5; 0.269 µM (active) in the test with RXF 393; 0.274 µM (active) with SF-295; 0.207 µM (active) with SN12C; 0.287 µM (active) with SNB-19; 0.0746 µM (active) in the test with SR. Moreover, the GI50 in the test with TK-10 is 0.625 µM (active); in the test with UO-31, 0.336 µM (active).
As for `COC(=O)C1=C(C)NC(C)=C(C(=O)OC)C1c1cccc(N=O)c1`, the GI50 in the test on 786-0 is 16.7 µM (inactive); with CCRF-CEM it was 3.55 µM (inactive); with EKVX, 20.1 µM (inactive); in the test on HCC 2998, 22.3 µM (inactive); in the test on HCT-116, 11 µM (inactive); with HCT-15 it was 17.8 µM. In addition, the GI50 in the test with HT-29 is 16.3 µM (inactive); in the test on IGROV-1 it was 17 µM (inactive); in the test with MDA-N, 13.3 µM (inactive); in the test with Malme-3M, 15.4 µM (inactive); in the test with NCI-H460 it was 16 µM (inactive); in the test on OVCAR-3, 15.7 µM (inactive). The GI50 in the test with OVCAR-5 is 18 µM (inactive); with RXF 393, 13.3 µM (inactive); with SF-295, 52.8 µM (inactive); in the test on SN12C it was 18.8 µM (inactive); in the test with SNB-19, 75.5 µM (inactive); in the test with SR it was 5.41 µM (inactive). Besides, the GI50 with TK-10 is 15 µM (inactive); with UO-31, 8.38 µM (inactive).
As for `CCCOc1ccc(-c2nc(-c3ccc(/N=C/c4ccc(N(CCOS(C)(=O)=O)CCOS(C)(=O)=O)cc4C)cc3)cs2)cc1`, the GI50 in the test with 786-0 is 3.35 µM (inactive); with CCRF-CEM it was 2.58 µM (inactive); in the test with EKVX, 17.6 µM (inactive); with HCC 2998, 12 µM (inactive); with HCT-116 it was 29.4 µM (inactive); with HCT-15, 23.4 µM. For the same compound, the GI50 in the test with HT-29 is 17.9 µM (inactive); in the test with IGROV-1, 20 µM (inactive); in the test on MDA-N, 28.7 µM (inactive); in the test on Malme-3M it was 44.4 µM (inactive); in the test on NCI-H460, 0.286 µM (active); in the test on OVCAR-3 it was 18.2 µM (inactive). Also, the GI50 was 31.9 µM (inactive) with OVCAR-5; 6.08 µM (inactive) in the test with RXF 393; 3.73 µM (inactive) with SF-295; 16.8 µM (inactive) in the test with SN12C; 41.7 µM (inactive) in the test with SNB-19; 3.85 µM (inactive) in the test on SR. The GI50 was 18.8 µM (inactive) in the test on TK-10 and 11.7 µM (inactive) with UO-31.

The record behind these values is ChEMBL document CHEMBL1201862, “PubChem BioAssay data set” (2004).
